Experimental findings from US20060019952A1, “Anti-viral therapeutics” (ELIXIR PHARMACEUTICALS, INC., priority 2004, published 2006) are described below.

This assay has as its target T1, GFP-hSIRT2 isoform 1 (Homo sapiens, UniProt Q8IXJ6).
T1 construct: expressed in transfected cells; host or cells: HeLa
T1 sequence (Q8IXJ6 1-389): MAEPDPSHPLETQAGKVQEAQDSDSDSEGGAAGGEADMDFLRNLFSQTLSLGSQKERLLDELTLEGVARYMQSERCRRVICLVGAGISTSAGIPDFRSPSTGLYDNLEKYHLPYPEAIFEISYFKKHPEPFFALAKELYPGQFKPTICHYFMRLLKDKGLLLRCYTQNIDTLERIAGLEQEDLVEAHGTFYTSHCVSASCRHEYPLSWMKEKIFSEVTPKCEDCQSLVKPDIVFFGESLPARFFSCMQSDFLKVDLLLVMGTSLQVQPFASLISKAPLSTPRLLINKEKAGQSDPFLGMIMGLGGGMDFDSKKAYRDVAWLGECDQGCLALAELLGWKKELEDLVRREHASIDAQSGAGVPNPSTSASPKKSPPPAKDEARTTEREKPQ
Kind of assay: Acetylated tubulin staining in HeLa cells transfected with GFP-hSIRT2 isoform 1. The class given is cell-based. Particulars: 50 μM compound with 1 μM TSA, added 36 hours post transfection, fixed next morning, versus DMSO. Here is the method: HeLa cells were transfected with GFP-hSIRT2 isoform 1. At 36 hours post transfection 1 μM of TSA and either DMSO or 50 μM of Compound 8 was added. The next morning cells were fixed, permeabilized, and stained for acetylated tubulin.

In the case of `NC(=O)COC(=O)c1sc2ccccc2c1Cl` [Compound 8, 3-Chloro-benzo[b]thiophene-2-carboxylic acid carbamoylmethyl ester], the “tubulin acetylation in cells expressing SIRT2 (staining for acetylated tubulin)” value is “more highly acetylated”.
